According to ChEMBL document CHEMBL4706608, “Design and synthesis of 3-(4-pyridyl)-5-(4-sulfamido-phenyl)-1,2,4-oxadiazole derivatives as novel GSK-3β inhibitors and evaluation of their potential as multifunctional anti-Alzheimer agents” (Eur J Med Chem, 2021):
Calls of active or inactive are those of the source. The calls are words filed in the database; no cut-off is given here.

What was measured:
[1] = target: T1, Glycogen synthase kinase-3 beta (Homo sapiens, UniProt P49841); assay: Inhibition of GSK3beta (unknown origin) measured after 40 mins by ADP-Glo assay
Target sequence in this assay (P49841 whole entry): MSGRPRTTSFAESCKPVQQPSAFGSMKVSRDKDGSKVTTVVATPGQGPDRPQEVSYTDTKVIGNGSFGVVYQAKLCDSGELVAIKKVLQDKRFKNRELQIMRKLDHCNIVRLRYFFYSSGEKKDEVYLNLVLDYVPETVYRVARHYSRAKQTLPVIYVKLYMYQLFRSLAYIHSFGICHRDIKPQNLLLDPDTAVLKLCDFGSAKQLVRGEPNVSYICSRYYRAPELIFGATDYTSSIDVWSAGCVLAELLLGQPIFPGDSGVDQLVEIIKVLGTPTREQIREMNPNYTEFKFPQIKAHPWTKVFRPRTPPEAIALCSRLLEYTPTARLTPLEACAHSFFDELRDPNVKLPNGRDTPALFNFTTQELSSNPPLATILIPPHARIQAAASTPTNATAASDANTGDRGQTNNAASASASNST

[2] = Antioxidant activity assessed as DPPH radical scavenging activity after 2 hrs by microplate method; assay type: functional; settings: dose 1-1000 µM
HepG2 [3] = assay: Cytotoxicity against human HepG2 cells assessed as cell viability at 10 to 50 uM after 24 hrs by MTT assay; assay type: cell-based; settings: hepg2, 24 h, dose 10-50 µM
[4] = Cytotoxicity against rat PC-12 cells assessed as cell viability at 50 uM by MTT assay relative to control; assay type: cell-based; settings: read-out: Activity
PC-12 [5] = assay: Neuroprotective activity against H2O2-induced cytotoxicity in rat PC12 cells assessed as increase in cell viability at 10 uM preincubated for 3 hrs followed by H2O2 addition and measured after 24 hrs by MTT assay (reference value: 24.8 to 41.7%); assay type: functional
BV-2 [6] = assay: Antiinflammatory activity in LPS-stimulated mouse BV-2 cells assessed as decrease in iNOS level at 1 to 10 uM preincubated for 1 hr followed by LPS addition measured after 24 hrs by Western blot analysis; assay type: functional, cell-based; settings: dose 1-10 µM, time 25.0 hrs
[7] = Cytotoxicity against human L-02 cells assessed as decreased cell viability at 50 uM after 24 hrs by MTT assay relative to control; assay type: cell-based, L02; settings: read-out: INH
[8] = Efflux ratio of apparent permeability across basolateral to apical membrane to apical to basolateral membrane in MDCK2-MDR1 measured upto 120 mins; assay type: ADME, tissue-based, Canis lupus familiaris, MDCK-II; settings: dog
[9] = Apparent permeability from apical to basolateral side in MDCK2-MDR1 measured upto 120 mins; assay type: ADME, Canis lupus familiaris; settings: dog, mdck-ii, 2 h
BV-2 [10] = assay: Antiinflammatory activity in LPS-stimulated mouse BV-2 cells assessed as decrease in TNF-alpha level at 1 to 10 uM preincubated for 1 hr followed by LPS addition measured after 24 hrs by ELISA; assay type: functional, cell-based; settings: dose 1-10 µM, time 25.0 hrs
BV-2 [11] = assay: Antiinflammatory activity in LPS-stimulated mouse BV-2 cells assessed as decrease in cox-2 level at 1 to 10 uM preincubated for 1 hr followed by LPS addition measured after 24 hrs by Western blot analysis; assay type: functional, cell-based; settings: dose 1-10 µM, time 25.0 hrs
BV-2 [12] = assay: Antiinflammatory activity in LPS-stimulated mouse BV-2 cells assessed as decrease in IL-1beta level at 1 to 10 uM preincubated for 1 hr followed by LPS addition measured after 24 hrs by ELISA; assay type: functional, cell-based; settings: dose 1-10 µM, time 25.0 hrs
PC-12 [13] = assay: Inhibition of H2O2-induced intracellular ROS production in rat PC-12 cells pretreated for 6 hrs followed by H2O2 addition measured after 18 hrs by DCFH-DA assay; assay type: functional, cell-based; settings: dose 1-50 µM, time 24.0 hrs
PC-12 [14] = assay: Neuroprotective activity against H2O2-induced cytotoxicity in rat PC12 cells assessed as increase in cell viability at 30 uM preincubated for 3 hrs followed by H2O2 addition and measured after 24 hrs by MTT assay (reference value: 24.8 to 41.7%); assay type: functional
[15] = target: T1, Glycogen synthase kinase-3 beta; assay: Inhibition of GSK-3beta in human SH-SY5Y cells assessed as decrease in amyloid beta-induced Tau hyperphosphorylation at Ser396 pretreated for 1 hr followed Amyloid beta addition measured after 6 hrs by Western blot analysis; assay type: cell-based; settings: dose 5-15 µM, time 7.0 hrs
Target sequence in this assay (P49841 whole entry, looked up): as the sequence (P49841 whole entry) above

SH-SY5Y = assay: Inhibition of H2O2-induced intracellular ROS production in human SH-SY5Y cells pretreated for 6 hrs followed by H2O2 addition measured after 18 hrs by DCFH-DA assay; assay type: functional, cell-based; settings: dose 1-50 µM, time 24.0 hrs
BV-2 [16] = assay: Anti-neuroinflammation in mouse BV2 cells assessed as inhibition of LPS-induced NO production preincubated for 1 hr followed by LPS addition measured after 24 hrs by Griess reagent based assay; assay type: functional, cell-based
[17] = Apparent permeability from basolateral to apical side in MDCK2-MDR1 measured upto 120 mins; assay type: ADME, Canis lupus familiaris, MDCK-II; settings: dog
[18] = Cytotoxicity against rat PC-12 cells assessed as cell viability at 30 uM by MTT assay relative to control; assay type: cell-based; settings: read-out: Activity
HepG2 [19] = assay: Increase in glucose consumption in human HepG2 cells at 20 uM after 24 hrs by glucose oxidase assay (reference value: 1.36 mM); assay type: functional
HepG2 [20] = assay: Increase in glucose consumption in human HepG2 cells at 20 uM after 24 hrs by glucose oxidase assay; assay type: functional, cell-based
Mus musculus [21] = assay: Cognitive enhancing effect in C57BL mouse model of scopolamine-induced memory impairment assessed as number of virtual platform crossing at 10 to 30 mg/kg, po administered for 7 days and measured after 30 mins at 5th day of training session by Morris water maze test; assay type: functional, organism-based; settings: dose 10-30 mg/kg, time 7.0 day
Mus musculus [22] = assay: Cognitive enhancing effect in orally dosed C57BL mouse model of scopolamine-induced memory impairment assessed as escape latency administered for 7 days and measured after 30 mins at 4th day of training session by Morris water maze test; assay type: functional, organism-based; settings: dose 10-30 mg/kg, time 7.0 day
Mus musculus [23] = assay: Cognitive enhancing effect in C57BL mouse model of scopolamine-induced memory impairment assessed as time in target quadrant at 10 to 30 mg/kg, po administered for 7 days and measured after 30 mins at 5th day of training session by Morris water maze test; assay type: functional, organism-based; settings: dose 10-30 mg/kg, time 7.0 day
[24] = Effect on body weight in C57BL mouse model of scopolamine-induced memory impairment model at 10 to 30 mg/kg, po administered for 7 days; assay type: ADME, organism-based; settings: in vivo, 168 h, dose 10-30 mg/kg, time 7 day
L02 = assay: Cytotoxicity against human L-02 cells assessed as decreased cell viability at 50 uM after 24 hrs by MTT assay; assay type: cell-based; settings: l02, 24 h
[25] = Effect on swimming speed in C57BL mouse model of scopolamine-induced memory impairment model at 10 to 30 mg/kg, po administered for 7 days; assay type: ADME, organism-based; settings: in vivo, 168 h, dose 10-30 mg/kg, time 7 day

IC50 [1] [µM]	permeability [9]	inhibition [15]	IC50 (BV-2 [16]) [µM]	SMILES	Activity [2]	Activity (HepG2 [3])	viability at 50 µM [4] [%]	Activity (PC-12 [5]) [%]	inhibition (BV-2 [6])	inhibition (BV-2 [10])	inhibition (BV-2 [11])	inhibition (BV-2 [12])	inhibition (PC-12 [13])	Activity (PC-12 [14]) [%]	inhibition (SH-SY5Y)	viability at 30 µM [18] [%]	Activity (HepG2 [19]) [mM]	other results
1.02	1.31 10^-5 cm/s	Dose-dependent effect	0.47	CC(=O)c1ccc(S(=O)(=O)Nc2ccc(-c3nc(-c4ccnc(Nc5ccc(OC(F)(F)F)cc5)c4)no3)cc2)cc1	Dose-dependent effect	Non-Toxic	98.1	57.1	Active	Active	Active	Active	Dose-dependent effect	68.6	Dose-dependent effect	99.1	3.28	cytotoxicity at 24 h, 50 µM [7]: 20%; Ratio ([8]; mdck-ii, 2 h): 1.27; permeability ([17]; mdck-ii, 2 h): 1.66 10^-5 cm/s
0.19	1.89 10^-5 cm/s	Dose-dependent effect	6.94	CC(C)(C)c1ccc(S(=O)(=O)Nc2ccc(-c3nc(-c4ccnc(Nc5cccc(Cl)c5)c4)no3)cc2)cc1	Dose-dependent effect	Non-Toxic	97.2	54.3	Active	Active	Active	Active	Dose-dependent effect	64.9	Dose-dependent effect	99.2	3.43	Activity (HepG2 [20]): Active; Activity (Mus musculus [21]): Active; Activity (Mus musculus [22]): Dose-dependent effect; Activity (Mus musculus [23]): Active; efflux ratio at 2 h ([8]; MDCK-MDR1): 1.02; Activity [24]: Non-Toxic; Activity (L02): Non-Toxic; Activity [25]: Non-Toxic; Papp B→A at 2 h ([17]; MDCK-MDR1, read-out: permeability): 19.3 ×10⁻⁶ cm/s
